Patent publication US9611230B2, “1,3,4-oxadiazole benzoic acid compounds and their use for nonsense suppression and the treatment of disease” (PTC Therapeutics, Inc., priority 2004, dated 2017)

melting point | SMILES
217 to 218 °C | O=C(O)c1cccc(-c2nc(-c3ccc(OC(F)(F)F)cc3)no2)c1 [Compound 511]
245 to 246 °C | CCOc1ccc(-c2cnc(-c3ccc(C(=O)O)cc3)o2)cc1 [Compound 638]
283 to 285 °C | CC(C)c1ccc(-c2ncc(-c3cccc(C(=O)O)c3)[nH]2)cc1 [Compound No. 311, 3-[2-(4-isopropylphenyl)-3H-imidazol-4-yl]benzoic acid]
259 to 261 °C | O=C(O)c1ccc(-c2ncc(-c3ccc(Br)cc3)o2)cc1 [Compound 642]
260 to 262 °C | O=C(O)c1cccc(-c2cc(-c3ccc(F)cc3F)on2)c1 [Compound 478]
> 275 °C | O=C(O)c1ccc(-c2nnc(-c3ccccc3)o2)cc1 [Compound 596]
249.5 to 251 °C | O=C(O)c1cccc(-c2nc(-c3ccc(C(F)(F)F)cc3)no2)c1 [Compound 513]
236 to 239 °C | CC(C)c1ccc(-c2nc(-c3cccc(C(=O)O)c3)co2)cc1 [Compound No. 313, 3-[2-(4-isopropylphenyl)-oxazol-4-yl]benzoic acid]
205 to 208 °C | O=C(O)c1cccc(-c2nnc(-c3ccc(Cl)nc3Cl)o2)c1 [Compound 272]
235 to 238 °C | O=C(O)c1cccc(-c2nc(-c3ccc(C(F)(F)F)cc3)n[nH]2)c1 [Compound 456]
210 to 211 °C | O=C(O)c1ccc(-c2ncc(-c3cccc(OCc4ccccc4)c3)o2)cc1 [Compound 646]
298 to 300 °C | COc1ccc(-c2cc(-c3ccc(C(=O)O)cc3)no2)cc1 [Compound 532]
220 to 226 °C | CC(C)c1ccc(NC(=O)c2nnc(-c3cccc(C(=O)O)c3)o2)cc1 [Compound 283]
> 270 °C | O=C(O)c1cccc(-c2nnc(-c3ccc4[nH]ccc4c3)o2)c1 [Compound 316]
274 to 275 °C | O=C(O)c1cccc(-c2nnc(-c3ccc(Br)nc3)o2)c1 [Compound 293]
172 to 176 °C | CC(C)c1ccc(-c2ccc(-c3cccc(C(=O)O)c3)o2)cc1 [Compound No. 322, 3-[5-(4-isopropylphenyl)furan-2-yl]benzoic acid]
223.5 to 225 °C | O=C(O)c1cccc(-c2ncc(-c3ccc(C(F)(F)F)cc3)o2)c1 [Compound 586]
253 to 255 °C | CC(C)c1ccc(-c2noc(-c3ccc(C(=O)O)cc3)n2)cc1 [Compound No. 140, 4-[3-(4-isopropylphenyl)-1,2,4-oxadiazol-5-yl]benzoic acid]
296 to 298 °C | CC(C)c1ccc(-c2cnc(-c3cccc(C(=O)O)c3)[nH]2)cc1 [Compound No. 277, 3-[5-(4-isopropylphenyl)-1H-imidazol-2-yl]benzoic acid]
218 to 220 °C | CC(C)c1ccc(-c2cnc(-c3cccc(C(=O)O)c3)s2)cc1 [Compound No. 310, 3-[5-(4-Isopropyl-phenyl)thiazol-2-yl]benzoic acid]
112 to 113.5 °C | COC(=O)c1cccc(-c2cc(-c3ccccc3F)on2)c1 [Compound 464]
152 to 155 °C | CC(C)c1ccc(-c2nnc(-c3cccc(C(=O)O)c3Cl)o2)cc1 [Compound 401]
272 to 274 °C | CN(C)c1ccc(-c2nnc(-c3cccc(C(=O)O)c3)o2)cn1 [Compound 223]
207 to 208 °C | Cc1ccccc1-c1cnc(-c2cccc(C(=O)O)c2)o1 [Compound 588]
264 to 265 °C | O=C(O)c1ccc(-c2ncc(-c3cccc(F)c3)o2)cc1 [Compound 553]

melting point | SMILES
210 to 213 °C | CC(C)c1ccc(-c2nc(-c3ccc(C(=O)O)cc3)no2)cc1 [Compound No. 275, 4-[5-(4-isopropylphenyl)-[1,2,4]oxadiazol-3-yl]benzoic acid]
279 to 282 °C | O=C(O)c1cccc(-c2nnc(-c3ccc(N4CCN(c5ccccc5)CC4)cc3)o2)c1 [Compound 84]
180 to 183 °C | CN(C)c1ccccc1-c1nnc(-c2ccccc2C(=O)O)o1 [Compound 610]
291 to 292 °C | O=C(O)c1ccc(-c2ncc(-c3cccc(O)c3)o2)cc1 [Compound 648]
> 290 °C (dec.) | O=C(O)c1cccc(-c2nnc(-c3ccc4cc[nH]c4c3)o2)c1 [Compound 317]
282 to 285 °C | O=C(O)c1cccc(-c2nc(-c3cccs3)n[nH]2)c1 [Compound 462]
233 to 235 °C | CC(C)c1ccc(-c2ccc(-c3cccc(C(=O)O)c3)s2)cc1 [Compound No. 400, 3-[5-(4-isopropylphenyl)thiophen-2-yl]benzoic acid]
228 to 229 °C | O=C(O)c1cccc(-c2ncc(-c3ccccc3F)o2)c1 [Compound 579]
297.5 to 299.5 °C | COc1ccc(-c2cc(-c3ccc(C(=O)O)cc3)on2)cc1 [Compound 539]
275 to 277 °C | O=C(O)c1cccc(-c2nnc(-c3ccc(N4CCCCC4)cc3)o2)c1 [Compound 83]
200 to 205 °C (dec.) | CC(C)c1ccc(-c2nnc(-c3cccc(C(=O)[O-])c3)o2)cc1.[Na+] [Compound 626]
> 310 °C | O=C(O)c1cccc(-c2nnc(-c3cccc4[nH]ccc34)o2)c1 [Compound 318]
198 to 202 °C | O=C(O)c1cccc(-c2noc(-c3ccccc3)c2C=NO)c1 [Compound 486]
201 to 203 °C | COc1cccc(-c2cc(-c3cccc(C(=O)O)c3)no2)c1 [Compound 481]
> 310 °C | CN(C)C(=O)c1ccc(-c2nnc(-c3ccc(C(=O)O)cc3)o2)cc1 [Compound 278]
238 to 239 °C | COc1cccc(-c2cc(-c3cccc(C(=O)O)c3)n[nH]2)c1 [Compound 551]
221.5 to 223 °C | O=C(O)c1cccc(-c2nc(-c3cccc(F)c3)no2)c1 [Compound 507]
174 to 175 °C | CCc1ccc(-c2cnc(-c3cccc(C(=O)O)c3)o2)cc1 [Compound 590]
245 to 246 °C | O=C(O)c1ccc(-c2ncc(-c3ccc(F)cc3)o2)cc1 [Compound 554]
222 to 224 °C | O=C(O)c1ccc(-c2ncc(-c3ccc(OC(F)(F)F)cc3)o2)cc1 [Compound 546]
249 to 251 °C | COc1ccc(-c2cnc(-c3ccc(C(=O)O)cc3)o2)cc1 [Compound 637]
245 to 247 °C | O=C(O)c1cccc(-c2cc(-c3ccccc3)on2)c1 [Compound 477]
194 to 195 °C | Cc1cccc(-c2cnc(-c3cccc(C(=O)O)c3)o2)c1 [Compound 589]
240 to 242 °C | COc1cccc(-c2cnc(-c3ccc(C(=O)O)cc3)o2)c1 [Compound 544]
276 to 277 °C | O=C(O)c1ccc(-c2ncc(-c3ccccc3Cl)o2)cc1 [Compound 555]

melting point | SMILES
274 to 275 °C | Cc1cccc(-c2ccc(-c3nnc(-c4cccc(C(=O)O)c4)o3)cn2)c1 [Compound 282]
287 to 290 °C | COc1ccccc1-c1n[nH]c(-c2cccc(C(=O)O)c2)n1 [Compound 459]
> 310 °C | O=C(O)c1cccc(-c2nc(-c3ccc(F)cc3)n[nH]2)c1 [Compound 426]
260 to 263 °C | O=C(O)c1ccc(-c2ncc(-c3ccc(Cl)cc3)o2)cc1 [Compound 639]
187 to 189 °C | CN(C)c1cccc(-c2nnc(-c3cccc(C(=O)O)c3)o2)c1 [Compound 2]
272 to 274 °C | O=C(O)c1ccc(-c2ncc(-c3cccc(Cl)c3)o2)cc1 [Compound 556]
251 to 253 °C | O=C(O)c1ccc(-c2ncc(C#Cc3ccccc3)o2)cc1 [Compound 651]
322 to 323 °C | O=C(O)c1ccc(-c2cc(-c3ccc(F)cc3)no2)cc1 [Compound 537]
255 to 256 °C | O=C(O)c1cccc(-c2ncc(-c3ccc(F)cc3)o2)c1 [Compound 581]
284 to 286 °C | Cc1ccccc1-c1cnc(-c2ccc(C(=O)O)cc2)o1 [Compound 643]
297.5 to 299 °C | Cc1ccc(-c2cc(-c3ccc(C(=O)O)cc3)no2)cc1 [Compound 534]
> 275 °C | CC(=O)Nc1cccc(-c2nnc(-c3ccc(C(=O)O)cc3)o2)c1 [Compound 14]
243 to 245 °C | CN(C)c1ccc(Cc2nnc(-c3ccc(C(=O)O)cc3)o2)cc1 [Compound 86]
235 to 237 °C | O=C(O)c1cccc(-c2nnc(-c3ccc(N4CCOCC4)cc3)o2)c1 [Compound No. 82, 3-[5-(4-morpholin-4-yl-phenyl)-[1,3,4]oxadiazol-2-yl]benzoic acid]
246 to 247 °C | COc1ccc(-c2cc(-c3cccc(C(=O)O)c3)on2)cc1 [Compound 500]
233 to 234 °C | CC(C)c1ccc(-c2cnc(-c3ccc(C(=O)O)cc3)o2)cc1 [Compound 635]
222 to 225 °C | CC(C)c1ccc(-c2cc(-c3cccc(C(=O)O)c3)no2)cc1 [Compound 290]
> 278.5 °C | O=C(O)c1cccc(-c2cc(-c3ccc(F)cc3F)no2)c1 [Compound 499]
> 270 °C | CC(C)c1ccc(NC(=O)Nc2cccc(-c3nnc(-c4ccc(C(=O)O)cc4)o3)c2)cc1 [Compound No. 60, 4-(5-{3-[3-(4-isopropylphenyl)ureido]phenyl}-[1,3,4]oxadiazol-2-yl)benzoic acid]
240 to 242 °C | Cc1cccc(-c2ccc(-c3nnc(-c4cccc(C(=O)O)c4)o3)cc2)c1 [Compound No. 281, 3-[5-(3′-methylbiphenyl-4-yl)-[1,3,4]oxadiazol-2-yl]benzoic acid]
> 300 °C | CC(C)c1cccc(-c2nnc(-c3ccc(C(=O)[O-])cc3)o2)c1.[Na+] [Compound 628]
218 to 219 °C | O=C(O)c1cccc(-c2ncc(-c3ccccc3C(F)(F)F)o2)c1 [Compound 584]
286 to 287 °C | O=C(O)c1ccc(-c2ncc(-c3cccc(C(F)(F)F)c3)o2)cc1 [Compound 543]
304 to 320 °C | O=C(O)c1cccc(-c2nnc(-c3c[nH]c4ccccc34)o2)c1 [Compound 319]
320.5 to 322.5 °C | O=C(O)c1ccc(-c2cc(-c3ccc(Cl)cc3)no2)cc1 [Compound 540]
